# In patent US20050208124A1, “Drugs containing riboflavin-type compounds” (priority 2003, published 2005):
# Read-outs that look alike come from different tables or passages of the source.
# What was measured:
# TNF-α-induced shock mice = assay: TNF-α-induced shock mouse model: survival; details: human TNF-α + D-galactosamine i.p., 20 mg/kg i.v. immediately after, 7 days
# HWEC cells = assay: IL-8 production in endothelial cells under high glucose load; type: cell-based, human; details: 30 mM glucose load, 2 h, glucose alone 1196 pg/mL
# AAPH-intoxication mice = assay: AAPH-intoxication mouse model: survival; details: male ICR mice, AAPH 125 mg/kg i.p., 7 days
# SEB-induced shock mice = details: mouse, in vivo
# [1] = tested on: TNF-α-stimulated mouse peritoneal macrophage; assay: IL-6 production from TNF-α-stimulated mouse peritoneal macrophage; type: cell-based; details: 10 ng/mL TNF-α, 24 h
# [2] = tested on: human vascular endothelial cells (HUEC); assay: Active oxygen production in endothelial cells under high glucose load; type: cell-based; details: 30 mM glucose load, control 91.2, glucose alone 140.5
# Method: Next, glucose was added to a glucose concentration of 30 mM on each plate, and the cells were CO2 incubated for 1 hour at 37° C. After completion of culture the cells were collected and intracellular active oxygen was measured by FACS Calibur (Flow Cytometry System; Becton Dickinson Japan) using […] (intracellular active oxygen measurement kit; […] Pharma).
# LPS-induced shock mice = details: male ICR mice, LPS 12 mg/kg i.v., 20 mg/kg i.v. 6 h after LPS
structure (smiles),measurement,setting,value
"Cc1cc2nc3c(=O)[nH]c(=O)nc-3n(C[C@H](O)[C@H](O)[C@H](O)COP(=O)([O-])O)c2cc1C.[Na+] [5′-FMN-Na, riboflavin-5′-phosphate sodium ester]",Survival number,TNF-α-induced shock mice; female ICR mice,7/10
same,Survival rate (%),TNF-α-induced shock mice; female ICR mice,70%
same,Survival number,TNF-α-induced shock mice; male BALB/c mice,6/10
same,Survival rate (%),"TNF-α-induced shock mice; male BALB/c mice, P < 0.05 vs. Saline, 20 mg/kg",60%
same,IL-8 concentration in the medium,HWEC cells; 6.25 μg/mL,297 pg/mL
same,IL-8 concentration in the medium,HWEC cells; 25 μg/mL,168 pg/mL
same,Survival number,"AAPH-intoxication mice; 20 mg/kg i.p. (−24 h, 0)",7/10
same,Survival rate (%),"AAPH-intoxication mice; 20 mg/kg i.p. (−24 h, 0), P < 0.05 vs. Saline",70%
same,Survival number,"AAPH-intoxication mice; 20 mg/kg i.v. (−24 h, 0, +1 h)",6/10
same,Survival rate (%),"AAPH-intoxication mice; 20 mg/kg i.v. (−24 h, 0, +1 h)",60%
same,plasma IL-6 concentration,SEB-induced shock mice,suppression effect
same,plasma INF-γ concentration,SEB-induced shock mice,suppression effect
same,plasma MIP-2 concentration,SEB-induced shock mice,suppression effect
same,TNF-α-induced IL-6 production,[1]; 1.56 μg/mL 5′-FMN-Na,suppressed
same,TNF-α-induced IL-6 production,[1]; 25 μg/mL 5′-FMN-Na,suppressed
same,"fluorescent strength (mean fluorescence), intracellular active oxygen",[2]; 0.1 μg/mL,114.2
same,"fluorescent strength (mean fluorescence), intracellular active oxygen",[2]; 0.39 μg/mL,125.0
same,"fluorescent strength (mean fluorescence), intracellular active oxygen",[2]; 1.56 μg/mL,111.9
same,"fluorescent strength (mean fluorescence), intracellular active oxygen",[2]; 6.25 μg/mL,89.5
same,plasma GM-CSF concentration,LPS-induced shock mice; 21 h after LPS (second peak),tended to depress
same,plasma MIP-2 concentration,"LPS-induced shock mice; after 9 h, maintained after 21 h",had declined
same,plasma IL-1β concentration,"LPS-induced shock mice; between 9 and 12 h after LPS, vs control",decreased rapidly
same,plasma NO level (total NO2 and NO3),LPS-induced shock mice; between 9 and 18 h,no suppression effect
same,plasma INF-γ concentration,"LPS-induced shock mice; between 9 and 18 h after LPS, vs control",declined rapidly
same,plasma NO level (total NO2 and NO3),LPS-induced shock mice; between 21 and 24 h,had a suppression effect
same,plasma IL-6 concentration,"LPS-induced shock mice; maintained after 21 h, vs control",rapid decline
same,plasma MCP-1 concentration,LPS-induced shock mice; maintained until 21 h after LPS,depressed
same,plasma IL-10 concentration,LPS-induced shock mice; second peak (21 h after LPS),depressed
same,plasma TNF-α concentration,LPS-induced shock mice; second peak (21 h after LPS),depressed
